≈ marks a conversion by molar mass, not a printed value. Calls of active or inactive are those of the source.

The test system of one assay is Candida albicans. Kind of assay: Antifungal activity against Candida albicans by agar-well diffusion assay. The note with it: for MIC: Candida albicans. It counts as functional. Background: Agar diffusion results depend on both activity and mobility in agar.
In a further assay the test system is Escherichia coli. Kind of assay: Antibacterial activity against Escherichia coli by agar-well diffusion assay. The assay is classed as functional, organism-based.
Another assay has as its system Staphylococcus aureus. Kind of assay: Antibacterial activity against Staphylococcus aureus by agar-well diffusion assay. It counts as functional.
The subject of another assay is Cryptococcus neoformans. Kind of assay: Antifungal activity against Cryptococcus neoformans by agar-well diffusion assay. The assay is classed as functional.
Assay [1] deals with Mycobacterium intracellulare. Kind of assay: Antibacterial activity against Mycobacterium intercellulare by agar-well diffusion assay. It counts as functional.
Assay [2] concerns Trichophyton mentagrophytes. Kind of assay: Antifungal activity against Trichophyton mentagrophytes by agar-well diffusion assay. The assay is classed as functional. The following applies: for MIC: Trichophyton mentagrophytes.
The next assay deals with Yarrowia deformans. Kind of assay: Antifungal activity against Torulopsis petrophilum by agar-well diffusion assay. It counts as functional.
The subject of a further assay is Candida. Kind of assay: Antifungal activity against Torulopsis cremoris by agar-well diffusion assay. It counts as functional.
The next assay relates to Aspergillus flavus. Kind of assay: Antifungal activity against Aspergillus flavus by agar-well diffusion assay. It counts as functional.

For `CC(C)=C[C@H]1C[C@H](C)[C@]2(CC[C@]3(C)C[C@H]4[C@H]5/C(=C\C[C@H]32)C(=O)OC5(O)C[C@@]4(C)O)O1` (stereo partly specified) [OPHIOBOLIN L], the “inhibition zone (IZ)” value in the assay on Candida albicans was found to be 1 mm; in the assay on Cryptococcus neoformans it was 3 mm; in [1] it was 3 mm. Besides, the “inhibition zone (IZ)” value with Escherichia coli and with Staphylococcus aureus was “inactive” throughout.
For `CC(C)=C[C@H]1C[C@H](C)[C@]2(CC[C@]3(C)C[C@@H]4C(C)=CC(=O)[C@H]4/C(CO)=C\C[C@H]32)O1` [OPHIOBOLIN I], the outcome with Candida albicans, with Escherichia coli and in the assay on Staphylococcus aureus was inactive. Also, the figures for the “inhibition zone (IZ)” value (in assay [2]; with Cryptococcus neoformans; in assay [1]) were 7 mm, 1 mm and 3 mm, respectively.
On to `CC(C)=C[C@H]1C[C@H](C)[C@]2(CC[C@]3(C)C[C@H]4[C@H](C(=O)C[C@@]4(C)O)/C(C=O)=C\C[C@H]32)O1` [OPHIOBOLIN A], for which the MIC (in general, the smallest concentration in the dilution series that meets the test's criterion for growth inhibition) with Yarrowia deformans came out at 1.56 µg/mL (≈ 3.89 µM); against Candida, 0.2 µg/mL (≈ 0.499 µM); with Candida albicans it was 125 µg/mL (≈ 312 µM); in [2], 12.5 µg/mL (≈ 31.2 µM); in the assay on Aspergillus flavus it was 25 µg/mL (≈ 62.4 µM). The “inhibition zone (IZ)” value is given as 7 mm in the assay with Candida albicans; more than 12 mm in assay [2]; 7 mm in the assay with Staphylococcus aureus; 3 mm in the assay on Cryptococcus neoformans; 3 mm in assay [1]. The result in the assay on Escherichia coli was inactive.
With `CC(C)=C[C@H]1C[C@H](C)[C@]2(CC[C@]3(C)C[C@H]4[C@H]5/C(=C\C[C@H]32)C(=O)O[C@H]5C[C@@]4(C)O)O1` [OPHIOBOLIN A LACTONE], the result in the assay on Candida albicans, in the assay with Escherichia coli and in the assay on Staphylococcus aureus was inactive. For the same compound, the “inhibition zone (IZ)” value in assay [2] stood at 7 mm; in the assay with Cryptococcus neoformans it was 1 mm; in [1], 3 mm.
On to `C[C@@H]1[C@H](O)[C@@H](C)/C=C/C=C/C=C/C=C/C=C/C=C/C=C/[C@H](O[C@@H]2O[C@H](C)[C@@H](O)[C@H](N)[C@@H]2O)C[C@@H]2O[C@](O)(C[C@@H](O)C[C@@H](O)[C@H](O)CC[C@@H](O)C[C@@H](O)CC(=O)O[C@H]1C)C[C@H](O)[C@H]2C(=O)O` [AMPHOTERICIN B], for which the minimal inhibitory concentration (MIC) worked out at 0.2 µg/mL (≈ 0.216 µM) against Yarrowia deformans; 3.12 µg/mL (≈ 3.38 µM) with Candida; 0.78 µg/mL (≈ 0.844 µM) against Candida albicans; 0.78 µg/mL (≈ 0.844 µM) in [2]; 3.12 µg/mL (≈ 3.38 µM) with Aspergillus flavus.
`CC(C)=CCC[C@H](C)[C@@]1(O)CC[C@]2(C)C[C@H]3[C@H]4/C(=C\C[C@H]21)C(=O)O[C@H]4C[C@@]3(C)O` [OPHIOBOLIN B LACTONE]: the result (with Candida albicans; in the assay with Escherichia coli; in the assay on Staphylococcus aureus; in assay [1]) was inactive. Also, the results for the “inhibition zone (IZ)” value (in assay [2]; in the assay on Cryptococcus neoformans) were 7 mm and 1 mm, respectively.
For `CC(C)=C[C@H]1C[C@H](C)[C@]2(CC[C@]3(C)C[C@H]4[C@@H]5/C(=C\C[C@H]32)C(=O)OC5(O)C[C@@]4(C)O)O1` (stereo partly specified), the result (in the assay with Candida albicans; with Escherichia coli; in assay [1]) was inactive. Besides, the “inhibition zone (IZ)” value was “<=7 mm” in assay [2], more than 12 mm in the assay on Staphylococcus aureus and “<=1 mm” with Cryptococcus neoformans.
With `CC(C)=CCC[C@H](C)[C@@]1(O)CC[C@]2(C)C[C@H]3[C@H](C(=O)C[C@@]3(C)O)/C(C=O)=C\C[C@H]21` [OPHIOBOLIN B], the outcome (in the assay with Candida albicans; in the assay on Escherichia coli; in [1]) was inactive. Moreover, the “inhibition zone (IZ)” value in assay [2] is 7 mm; in the assay with Staphylococcus aureus, 3 mm; in the assay with Cryptococcus neoformans, “<=1 mm”.
